# Laboratory results taken from the METLIN SMRT retention time set (Domingo-Almenara et al. 2019).
# Experiment: gradient 5% acetonitrile 3 min, to 50% in 2 min, to 85% in 15 min, held 3 min, 100 µL/min
# Conditions: column: Zorbax Extend-C18 2.1 x 50 mm; eluents: water / acetonitrile, 0.1% formic acid
# Summary of the method: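 Standards, all pure, were combined into mixtures of ~100 molecules and run at 100 μL/min on a Zorbax Extend-C18 column (2.1 × 50 mm, 1.8 μm) with water and acetonitrile, each containing 0.1% formic acid. A coupled quadrupole time-of-flight mass spectrometer operated in positive and negative ionization mode. Retention time values come from computationally picked adduct peaks, each inspected manually.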
row,Compound,RP-LC retention time [s]
1,Cn1nc(-c2nc(C3CC3)no2)c2c1CCN(C(=O)c1ccc(F)c(Cl)c1)C2,900
2,Cn1c(=O)c2c(nc(OCCc3ccccc3)n2C)n(C)c1=O,909
3,Cn1nccc1-c1cccc(-c2noc(-c3cccc(C#N)c3)n2)c1,1030
4,CCc1ccccc1S(=O)(=O)N1CCC(C(=O)NCCc2csc(-c3ccccc3)n2)CC1,1010
5,CCOc1ccc(C(=O)N2CCN(c3ccc(=O)n(-c4ccc(C(C)C)cc4)n3)CC2)cc1,1000
6,COC(=O)c1ncn2c1C(=O)N(Cc1ccccc1)C(C)(C(=O)NCc1ccc(C)cc1)C2 (stereo not given),734
7,Cc1ccc(NC(=O)Cn2nc(C(=O)N3CCCCC3)c3ccccc32)c(Br)c1,973
8,CN(C)S(=O)(=O)c1ccc(C(=O)N2CCC(Oc3nc4ccccc4s3)CC2)cc1,892
9,CSc1ccc(-c2noc(Cn3c(=O)n(-c4cccc(C)c4)c(=O)c4sccc43)n2)cc1,1070
10,CC(=O)N(C)CCc1noc(C2CN(C(=O)Cc3cccs3)C2)n1,627
11,CCOC(=O)C1C(=O)NC(N2CCc3ccccc32)=NC1c1ccco1 (stereo not given),690
12,COc1cccc(Nc2n[nH]nc2C(=O)Nc2ccccc2Br)c1,1060
13,CC(C)NC(=O)N1CCC(c2noc(-c3ccccc3)n2)C1 (stereo not given),775
14,Cc1ccsc1C(=O)N1CCN(c2cc(-c3ccccc3)[nH]n2)CC1,744
15,CCN1C(=O)C2(CCN(S(=O)(=O)c3cc(C)ccc3C)CC2)c2ccccc21,1110
16,Cc1nc(-c2cn(C)c3ncccc23)sc1C(=O)NCc1ccc(C(F)(F)F)cc1,981
17,Fc1ccc(Cc2noc(-c3nc(-c4ccncc4)no3)n2)cc1,943
18,CCc1ccc(S(=O)(=O)N2CCN(Cc3nc4cc(C(C)(C)C)ccc4o3)CC2)cc1,998
19,Cc1ccc(NC(=O)Cc2ccc(S(C)(=O)=O)cc2)c(C(=O)c2ccccc2)c1,814
20,CCC(C)(C)OCC(O)CNCC(C)C (stereo not given),579
21,CCCC(NC(=O)c1ccc(F)cc1)C(=O)Nc1nc2ccccc2[nH]1 (stereo not given),690
22,COc1ccc(NC(=O)C2CC(=O)N(CCc3c[nH]c4ccc(F)cc34)C2)cc1 (stereo not given),758
23,CC(=O)N1CCc2cc(N3CC(C(=O)Nc4ccc(Cl)cc4)CC3=O)ccc21 (stereo not given),750

row,Compound,RP-LC retention time [s]
1,CCN1C(=O)C2(CCN(S(=O)(=O)c3ccc(C(C)C)cc3)CC2)c2ccccc21,1210
2,Cc1cccc(N2CCN(C(=S)Nc3ccc4nc(N5CCN(C)CC5)cc(C)c4c3)CC2)c1C,655
3,Cc1cccnc1NC(=O)Nc1c[nH]c2ccccc12,826
4,Cc1nc(N2CCN(CCO)CC2)nc2c1C(=O)CC(c1cccc(Cl)c1)C2 (stereo not given),693
5,CCc1ccc(S(=O)(=O)N2CCN(CCc3cn(CC)c4ncccc34)CC2)cc1,690
6,CCn1c(CC2C(=O)Nc3ccccc32)nc2ccccc2c1=O (stereo not given),730
7,O=C(CC1CCN(C(=O)NCc2ccccc2)CC1)NCc1cccc(F)c1,741
8,CCc1nncn1C1CCN(C(=O)Nc2ccc(Cl)cc2F)C1 (stereo not given),638
9,Fc1ccc(C2Cn3nnc(-c4nc(-c5ccccc5F)no4)c3CO2)cc1 (stereo not given),1110
10,CN1C(=O)c2cc(C(=O)NCc3cccc(Cl)c3)nn2CC1(C)C(=O)NCc1ccccc1 (stereo not given),793
11,CCC(C(=O)NCCOC)n1nc(C)c2sc3ccccc3c2c1=O (stereo not given),826
12,CCc1csc(-c2ccc(N3CCN(C(=O)c4ccc(OC)c(OC)c4)CC3)nc2)n1,839
13,Cc1cc(-c2cc(S(=O)(=O)NCC(C)c3ccccc3)c(C)s2)n[nH]1 (stereo not given),890
14,Cc1ccc(S(=O)(=O)N2CCCC(C(=O)NCc3c(C)nc4sc(C)nn34)C2)cc1 (stereo not given),687
15,COc1ccc(CNC(=O)Cn2c(=O)cc(-c3nc(C4CC4)no3)c3ccccc32)cc1,888
16,COc1ccc(N2CC(c3noc(-c4ccc(F)cc4)n3)CC2=O)cc1 (stereo not given),926
17,COc1ccc(N2CC(c3noc(-c4cc(F)cc(F)c4)n3)CC2=O)cc1OC (stereo not given),899
18,CCN(CC)C(=O)c1ccc2c(c1)N(CC(=O)N1CCCCC1)C(=O)CO2,691
19,O=C(NC1CC1)c1cccc(OCC2CCCN(C(=O)C3CCCO3)C2)c1 (stereo not given),689
20,COc1cc(F)c(F)c(Nc2ccc(I)cc2F)c1NS(=O)(=O)C1(C[C@H](O)CO)CC1,1050
21,COc1ncc(C(=O)Nc2ccc(C)cc2C)c(C)n1,736
22,CC(C)c1ccc(Nc2nc3ccncc3n(Cc3ccccc3)c2=O)cc1,886
23,CCOc1ccc(NS(=O)(=O)c2ccccc2-c2nc(-c3ccc(F)cc3)no2)cc1,1200

row,Compound,RP-LC retention time [s]
1,CCn1nnc2c(SCc3cc(OC)cc(OC)c3)ncnc21,917
2,Cc1nc2cc(-c3noc(Cc4cccc(C(F)(F)F)c4)n3)ccc2o1,1080
3,COc1ccc(OC)c(S(=O)(=O)N2CCCC(C(=O)NC(C)C)C2)c1 (stereo not given),714
4,Cc1ccc(-c2noc(Cc3nnc(-c4ccccc4)o3)n2)cc1,1040
5,O=C(C1CCCN(c2nnc(-n3cccc3)s2)C1)N1CCN(Cc2ccccc2)CC1 (stereo not given),661
6,Cc1ccc(Cn2nc3ccc(S(=O)(=O)N4CCCC4)cn3c2=O)cc1C,952
7,O=C(NCc1cccnc1)C(=O)NCc1ccc2c(c1)OCO2,588
8,Cc1ccc2c(=O)c(C(=O)N3CCCC3)cn(CC(=O)Nc3ccccc3C)c2n1,692
9,CCOc1ccc2c(n1)CCN(C(=O)NC1CCCCC1)C2,822
10,COC[C@@H]1CN(S(=O)(=O)c2ccc(C#N)cc2)C[C@H]1c1ccncc1,746
11,Cc1ccn2cc(C(=O)NC3CCCC3)nc2c1,600
12,CCCCOc1ccc(NC(=O)c2cc(=O)c3cc(Cl)ccc3o2)c2cccnc12,787
13,CCC(C(=O)c1ccccc1)n1c(N2CCOCC2)nc2c1c(=O)n(C)c(=O)n2C (stereo not given),806
14,Cn1c(=O)c2c(nc(Oc3ccccc3)n2C)n(C)c1=O,807
15,CSc1nc(NC(C)C)c(C#N)c(-c2ccccc2)n1,1190
16,Cc1cc(NC(=O)c2cnccn2)sn1,606
17,O=C(CN1C(=O)NC(c2ccc(Cl)cc2)C2=C1COC2=O)NCc1ccc(F)cc1 (stereo not given),771
18,COc1cccc(Nc2cc(C)nc3ccnn23)c1,610
19,COc1cc(OC)c(NC(=O)NC2CCN(c3ccc(C)cc3)C2=O)cc1Cl (stereo not given),873
20,O=C(Nc1cccc(F)c1)c1nnc(C(=O)N2CCC(C(=O)NC3CCCC3)CC2)s1,786
21,N#CCCN(c1ccc(C=O)cc1)S(=O)(=O)c1ccccc1,770
22,O=C(COC(=O)c1cccc([N+](=O)[O-])c1)c1ccc(NC(=O)c2ccccc2)cc1,921
23,O=C(CN1C(=O)COc2ccc(C(=O)N3CCCCC3)cc21)NCc1ccco1,691

row,Compound,RP-LC retention time [s]
1,Cc1cccc(NC(=O)N2CCc3c(c(-c4nnc(-c5ccccc5Cl)o4)nn3C)C2)c1,902
2,COc1ccc(CNC(=O)C2(c3ccc(NC(C)=O)cc3)CCC2)cc1,728
3,Cc1ccccc1CNC(=O)C1CCN(S(C)(=O)=O)c2ccccc2O1 (stereo not given),841
4,CCN(c1ccccc1)S(=O)(=O)c1ccc2c(c1)N(C(C)=O)CCCS2,937
5,Cc1oc(C(C)C)nc1C(=O)NCc1ccncc1,590
6,O=C(NCCc1ccccc1)N1CCN(c2cc(-c3ccncc3)[nH]n2)CC1,607
7,Cc1nn(C)c(C)c1CCN(C)C(=O)C1CCCCC(=O)N1C (stereo not given),582
8,Cc1ccc(Cl)cc1NC(=O)Cn1nc2c3cc(Cl)ccc3ncn2c1=O,770
9,O=C(NC1CCCC1)C1CCCN(c2nc3ccsc3c(=O)n2Cc2ccccc2)C1 (stereo not given),895
10,O=C(c1ccccc1F)N1CCC(n2nc(-c3ccsc3)ccc2=O)CC1,783
11,COc1ccc(NC(=O)NCC2CCOCC2)c(C)c1,657
12,O=C(c1cnc2ccccc2n1)N1CC(c2nc(-c3cccc(C(F)(F)F)c3)no2)C1,1030
13,CCC1CN(C(=O)N2CCC(C(=O)NCc3ccco3)CC2)c2cc(C)ccc2O1 (stereo not given),872
14,O=C(NCc1nnnn1C1CCCCC1)c1cccs1,715
15,Fc1cccc(F)c1-c1nc(-c2ccc3nncn3c2)no1,765
16,COc1cc(NC(=O)Cn2nc(N(C)C)c3ccccc3c2=O)cc(OC)c1,836
17,O=C(Cc1csc2nc(-c3ccccc3)cn12)NCc1ccco1,696
18,OC1(c2ccccn2)CCOC2(CCN(Cc3cccc(Cl)c3F)CC2)C1 (stereo not given),576
19,COc1ccc(CNC(=O)C2CCN(c3ccc(SCc4ccccc4)nn3)CC2)cc1,742
20,Cc1noc(C)c1C(=O)N1CC(c2nc(CCOC3CCCC3)no2)C1,788
21,Cc1ccn2c(NC(=O)COc3ccc(Cl)cc3Cl)c(-c3ccc(F)cc3)nc2c1,804
